According to US10815233B2, “Dihydroindolizinone derivative” (ONO PHARMACEUTICAL CO., LTD., priority 2014, dated 2020):
Marks after values point to notes of the source that are not given here.

Legend:
[1] = test system: standard human plasma; experiment: Activated partial thromboplastin time (APTT) in standard human plasma; type: biochemical; settings: concentration required for doubling the coagulation time vs vehicle (1% DMSO)
Description: Activated partial thromboplastin time (APTT) and prothrombin time (PT) were measured by using a fully automatic device for measuring blood coagulation (CA-1500, Sysmex Corporation). On APTT or PT measurement, standard human plasma for the blood coagulation tests (Siemens Healthcare Diagnostics GmbH) was mixed with a diluted solution of the compound of the present invention, and thereafter, APTT reagent (Siemens Healthcare Diagnostics GmbH) and 0.02 M of calcium chloride or PT reagent (Siemens Healthcare Diagnostics GmbH) were automatically added to the mixture in order to initiate clot formation. The anticoagulation activity (APTT×2 or PT×2) of the compound of the present invention was expressed as a concentration required for doubling the coagulation time in the vehicle (1% DMSO) group. APTT×2 or PT×2 was determined by plotting the concentration of the compound of the present invention against a twofold increase in the coagulation time.

[2] = Pharmacokinetic (PK) tests in rats; type: in vivo; settings: for concentration at 8 h: male, Crj:CD(SD), oral, read-out: Plasma concentration C8h; for concentration at 8 h / AUC: rat, plasma; for AUC: po, fasted male Crj:CD(SD) rats; for APTT × 2 maintaining time: 1 mg/kg orally, period when plasma concentration exceeded APTT×2; for C8h/APTT × 2: C8h divided by APTT×2
Description: The compound of the present invention was administered to fasted male Crj:CD(SD) rats by intravenous injection as a single intravenous dose of 0.1 mg/kg (vehicle: 20% HP-β-CD solution) and by forced oral dosage as a dose of 1 mg/kg per os (vehicle: 0.5% methylcellulose solution). Blood samples were collected from cervical vein into heparinized syringes at 0.08, 0.25, 0.5, 1, 3 or 7 hours after administration by intravenous injection or 0.08, 0.25, 0.5, 1, 2, 4, 6, 8 or 24 hours after oral administration. Plasma was obtained by centrifugation, and plasma was stored at −20° C. until measurement of plasma concentration.
In order to measure the plasma concentration of the compound of the present invention, the plasma sample was subjected to deproteinization by using acetonitrile, was filtrated by using a filter, and thereafter, was diluted with purified water, and then was analyzed by LC/MS/MS. A column for analysis (Shim-pack XR-ODSII, 2.0 mm×75 mm, 2.2 μm) and mobile phases (0.1% formic acid in water and 0.1% formic acid in acetonitrile, flow rate: 0.5 mL/min) were used. The system was used by detection of cations in the Multiple Reaction Monitoring (MRM) mode.
The area under the blood concentration versus time curve (AUC) and the bioavailability (BA) of the compound of the present invention were calculated. In addition, as indices of the maintaining time of the anticoagulation activity in the case of oral administration, AUC/APTT×2, which is obtained by dividing AUC by APTT×2, and C8h/APTT×2, which is obtained by dividing C8h (the plasma concentration at 8 hours after administration) by APTT×2, were calculated.
In addition, the period of time when the compound concentration in plasma of the compound of the present invention exceeded APTT×2 (the APTT×2 maintaining time) was calculated from the change in the compound concentration in plasma in the case when the compound of the present invention was orally administered at a dose of 1 mg/kg. The longer the APTT×2 maintaining time is, the longer the period of time is when the anticoagulation activity is maintained after oral administration.

[3] = target: T1, human blood coagulation factor XIa (Homo sapiens, UniProt P03951); experiment: Inhibitory activity on human blood coagulation factor XIa (chromogenic substrate S-2366); type: biochemical; settings: chromogenic substrate S-2366, 37° C.; read-out: FXIa inhibitory activity IC50
T1 construct: human blood coagulation factor XIa (Haematologic Technologies Inc.); purchased Haematologic Technologies Inc
T1 sequence (P03951 388-625 limits assumed): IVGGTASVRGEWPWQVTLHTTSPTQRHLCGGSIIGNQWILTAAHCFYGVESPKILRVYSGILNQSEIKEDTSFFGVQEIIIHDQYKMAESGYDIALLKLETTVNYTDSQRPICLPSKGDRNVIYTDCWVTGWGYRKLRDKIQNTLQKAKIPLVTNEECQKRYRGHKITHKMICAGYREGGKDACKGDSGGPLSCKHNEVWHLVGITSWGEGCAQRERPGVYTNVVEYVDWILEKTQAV
T1 sequence (P03951 19-387 partner limits assumed): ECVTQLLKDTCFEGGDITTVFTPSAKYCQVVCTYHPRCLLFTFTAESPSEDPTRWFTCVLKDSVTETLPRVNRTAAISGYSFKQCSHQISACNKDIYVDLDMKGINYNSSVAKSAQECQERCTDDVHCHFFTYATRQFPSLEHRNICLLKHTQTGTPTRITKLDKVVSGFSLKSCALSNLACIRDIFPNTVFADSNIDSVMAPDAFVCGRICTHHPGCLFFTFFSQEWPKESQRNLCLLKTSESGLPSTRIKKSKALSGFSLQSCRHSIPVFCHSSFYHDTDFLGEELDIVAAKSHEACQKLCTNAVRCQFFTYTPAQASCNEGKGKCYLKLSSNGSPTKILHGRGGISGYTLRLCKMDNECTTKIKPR
Description: Inhibitory activities of the compound of the present invention on human blood coagulation factor XIa, factor VIIa, factor IXa, factor Xa, factor XIIa, plasma kallikrein and thrombin were evaluated. A chromogenic substrate solution was added to each of enzyme solutions, the absorbance at 405 nm was measured continuously at 37° C. for 5 minutes at intervals of 15 seconds, and the decomposition rate of each of substrates (mOD/min) was calculated. The half maximal (50%) inhibitory concentration (IC50) of the compound of the present invention on each of the enzymes was calculated by linear regression by using least-squares method from the concentration of the compound of the present invention which was converted in terms of natural logarithm and the rate of enzyme inhibition calculated according to the following equation.
The rate of enzyme inhibition (%) of the compound of the present invention was calculated by using the following equation: Rate of enzyme inhibition (%)=100×{(Cont(e)−BL(e))−(Comp(e)−BL(e))/(Cont(e)−BL(e))}
Cont (e): Decomposition rate of substrate (mOD/min) when enzyme solution and substrate solution were added to physiological saline containing 5% dimethyl sulfoxide
Comp (e): Decomposition rate of substrate (mOD/min) when enzyme solution and substrate solution were added to physiological saline containing 5% dimethyl sulfoxide and the compound of the present invention
The inhibitory activity on human blood coagulation factor XIa (Haematologic Technologies Inc.) was measured by using the enzyme solution adjusted to 0.1 U/mL by a buffer solution containing 300 mM of NaCl, 10 mM of KCl, 2 mg/mL of PEG 6000 and 100 mM of HEPES-NaOH (pH 7.4) as well as S-2366 (pyroglu-Pro-Arg-pNA, CHROMOGENIX) adjusted to 1 mM by distilled water.

[4] = rats, 1 mg/kg per os, 8 hours after administration

SMILES	APTT × [1] [µM]	concentration at 8 h [2, 4] [nM]	AUC ([2]; 1 mg/kg per os) [µM·h]	APTT × 2 maintaining time ([2]; rats)	C8h/APTT × 2 ([2]; rats, 1 mg/kg per os)	IC50 [3] [nM]	Plasma concentration C8h [2, 4]
Nc1ccc(-c2cnc([C@@H]3CCc4cc(-c5cc(Cl)ccc5-n5cnnn5)cc(=O)n43)[nH]2)c(F)n1 [Comparative Example 1 (1), (3S)-3-[5-(6-amino-2-fluoro-3-pyridinyl)-1H-imidazol-2-yl]-7-[5-chloro-2-(1H-tetrazol-1-yl)phenyl]-2,3-dihydro-5(1H)-indolizinone]	1.2	170	4.7	0* h	0.15		
Nc1ccc(-c2[nH]c([C@@H]3CCc4cc(-c5cc(Cl)ccc5-n5cnnn5)cc(=O)n43)nc2Cl)c(F)n1 [Comparative Example 1 (2), (3S)-3-[5-(6-amino-2-fluoro-3-pyridinyl)-4-chloro-1H-imidazol-2-yl]-7-[5-chloro-2-(1H-tetrazol-1-yl)phenyl]-2,3-dihydro-5(1H)-indolizinone]	1.8	26	0.69	0* h	0.014	4.8	
Nc1ccc(-c2[nH]c([C@@H]3CCc4cc(-c5cc(Cl)ccc5-n5cnnn5)cc(=O)n43)nc2F)cn1 [Comparative Example 1 (3), (3S)-3-[5-(6-amino-3-pyridinyl)-4-fluoro-1H-imidazol-2-yl]-7-[5-chloro-2-(1H-tetrazol-1-yl)phenyl]-2,3-dihydro-5(1H)-indolizinone]	0.55	81	1.7	<1 h	0.15	1.4	
Nc1ccc(-c2ncc([C@@H]3CCc4cc(-c5cc(Cl)ccc5-n5cnnn5)cc(=O)n43)[nH]2)c(F)n1 [Comparative Example 2 (1), (3S)-3-[2-(6-amino-2-fluoro-3-pyridinyl)-1H-imidazol-5-yl]-7-[5-chloro-2-(1H-tetrazol-1-yl)phenyl]-2,3-dihydro-5(1H)-indolizinone]	4.0		0.056	0* h		19	BLQ*
Nc1ccc(-c2nc(Cl)c([C@@H]3CCc4cc(-c5cc(Cl)ccc5-n5cnnn5)cc(=O)n43)[nH]2)c(F)n1 [Comparative Example 2 (3), (3S)-3-[2-(6-amino-2-fluoro-3-pyridinyl)-4-chloro-1H-imidazol-5-yl]-7-[5-chloro-2-(1H-tetrazol-1-yl)phenyl]-2,3-dihydro-5(1H)-indolizinone]	2.1	1100	23	<2 h	0.52	4.4	
Nc1ccc(-c2nc(F)c([C@@H]3CCc4cc(-c5cc(Cl)ccc5-n5cnnn5)cc(=O)n43)[nH]2)cn1 [Comparative Example 2 (5), (3S)-3-[2-(6-Amino-3-Pyridinyl)-4-Fluoro-1H-Imidazol-5-Yl]-7-[5-Chloro-2-(1H-Tetrazol-1-Yl)Phenyl]-2,3-Dihydro-5(1H)-Indolizinone]	0.21	73	1.6	<2 h	0.34	1.6	
COC(=O)Nc1ccc(-c2nc(Cl)c([C@@H]3CCc4nc(-c5cc(Cl)ccc5-n5cnnn5)cc(=O)n43)[nH]2)cc1 [Comparative Example 3 (1), methyl[4-(4-chloro-5-{(6S)-2-[5-chloro-2-(1H-tetrazol-1-yl)phenyl]-4-oxo-4,6,7,8-tetrahydropyrrolo[1,2-a]pyrimidin-6-yl}-1H-imidazol-2-yl)phenyl]carbamate]	0.64	180	4.2	<2 h	0.29	1.6	
Nc1ccc(-c2[nH]c([C@@H]3CCc4nc(-c5cc(Cl)ccc5-n5cnnn5)cc(=O)n43)nc2Cl)c(F)n1 [Comparative Example 3 (2), (6S)-6-[5-(6-amino-2-fluoro-3-pyridinyl)-4-chloro-1H-imidazol-2-yl]-2-[5-chloro-2-(1H-tetrazol-1-yl)phenyl]-7,8-dihydropyrrolo[1,2-a]pyrimidin-4(6H)-one]	3.7	27	1.4	0* h	0.0073	11	
N#Cc1cn(-c2ccc(Cl)cc2-c2cc3n(c(=O)c2)[C@H](c2nc(Cl)c(-c4ccc(N)nc4)[nH]2)CC3)nn1 [Comparative Example 4, 1-(2-{(3S)-3-[5-(6-amino-3-pyridinyl)-4-chloro-1H-imidazol-2-yl]-5-oxo-1,2,3,5-tetrahydro-7-indolizinyl}-4-chlorophenyl)-1H-1,2,3-triazole-4-carbonitrile]	2.0	350	8.4	0* h	0.18	2.7	
Nc1ccc(-c2[nH]c([C@@H]3CCc4cc(-c5cc(Cl)ccc5-n5cnnn5)cc(=O)n43)nc2F)c(F)n1 [Example 1 (6), (3S)-3-[5-(6-Amino-2-Fluoro-3-Pyridinyl)-4-Fluoro-1H-Imidazol-2-Yl]-7-[5-Chloro-2-(1H-Tetrazol-1-Yl)Phenyl]-2,3-Dihydro-5(1H)-Indolizinone]	0.80	880	33	>8 h	1.1	1.7	
Nc1ccc(-c2nc(F)c([C@@H]3CCc4cc(-c5cc(Cl)ccc5-n5cnnn5)cc(=O)n43)[nH]2)c(F)n1 [Example 2 (10), (3S)-3-[2-(6-Amino-2-Fluoro-3-Pyridinyl)-4-Fluoro-1H-Imidazol-5-Yl]-7-[5-Chloro-2-(1H-Tetrazol-1-Yl)Phenyl]-2,3-Dihydro-5(1H)-Indolizinone]	0.49	1000	15	>8 h	2.1	1.7	
Nc1ccc(-c2nc(F)c([C@@H]3CCc4nc(-c5cc(Cl)ccc5-n5cnnn5)cc(=O)n43)[nH]2)c(F)n1 [Example 3 (4), (6S)-6-[2-(6-Amino-2-Fluoro-3-Pyridinyl)-4-Fluoro-1H-Imidazol-5-Yl]-2-[5-Chloro-2-(1H-Tetrazol-1-Yl)Phenyl]-7,8-Dihydropyrrolo[1,2-a]Pyrimidin-4(6H)-One]	0.47	1600	28	>8 h	3.4	1.9	
